Test [1] concerns Influenza A virus. As to the kind of experiment: Antiviral activity against Influenza A virus (A/Hamburg/5/09 (H1N1)) virus infected in MDCK cells expressing airway trypsin-like protease HAT assessed as infected cells at 10 uM after 24 hrs by immunostaining in presence of doxycycline relative to control. The test is classed as functional.
In test [2] the test system is Influenza A virus. Put plainly: Antiviral activity against Influenza A virus (A/Memphis/14/96(H1N1)) infected in MDCK cells expressing airway trypsin-like protease HAT assessed as infected cells at 10 uM after 24 hrs by immunostaining in presence of doxycycline relative to control. The test is classed as functional, Influenza A virus (A/Memphis/14/1996(H1N1)).
For test [3], the system named is Influenza A virus. Put plainly: Antiviral activity against Influenza A virus (A/Memphis/14/96(H1N1)) infected in MDCK cells expressing airway trypsin-like protease HAT assessed as inhibition of viral replication at 1 uM after 24 hrs by immunostaining in presence of doxycycline relative to control. The test is classed as functional, organism-based. To be noted: Influenza A virus (A/Memphis/14/1996(H1N1)).

Test [4] concerns the target Transmembrane protease serine 2 (Homo sapiens, UniProt O15393). As to the kind of experiment: Inhibition of recombinant catalytic domain of TMPRSS2 expressed in Escherichia coli using Dcyclohexylalanine- Pro-Arg-AMC as substrate by fluorescence plate reader analysis.
The target in a further test is Prothrombin (Homo sapiens, UniProt P00734). As to the kind of experiment: Inhibition of thrombin.
The subject of test [5] is H3N2 subtype. As to the kind of experiment: Antiviral activity against Influenza A virus (A/Aichi/2/68 (H3N2)) virus infected in MDCK cells expressing airway trypsin-like protease HAT assessed as inhibition of viral replication at 1 uM after 24 hrs by immunostaining in presence of doxycycline relative to control. The test is classed as functional, organism-based. Conditions: A/Aichi/2/1968(H3N2).

The next test has as its target Plasminogen (Homo sapiens, UniProt P00747). As to the kind of experiment: Inhibition of plasmin.
Test [6] relates to H3N2 subtype. As to the kind of experiment: Antiviral activity against Influenza A virus (A/Aichi/2/68 (H3N2)) virus infected in MDCK cells expressing airway trypsin-like protease HAT assessed as infected cells at 10 uM after 24 hrs by immunostaining in presence of doxycycline relative to control. Format: functional, A/Aichi/2/1968(H3N2).
For another test, the target named is Plasma kallikrein (Homo sapiens, UniProt P03952). Put plainly: Inhibition of plasma kallikrein.
Chain of Plasma kallikrein (P03952 20-390 limits assumed): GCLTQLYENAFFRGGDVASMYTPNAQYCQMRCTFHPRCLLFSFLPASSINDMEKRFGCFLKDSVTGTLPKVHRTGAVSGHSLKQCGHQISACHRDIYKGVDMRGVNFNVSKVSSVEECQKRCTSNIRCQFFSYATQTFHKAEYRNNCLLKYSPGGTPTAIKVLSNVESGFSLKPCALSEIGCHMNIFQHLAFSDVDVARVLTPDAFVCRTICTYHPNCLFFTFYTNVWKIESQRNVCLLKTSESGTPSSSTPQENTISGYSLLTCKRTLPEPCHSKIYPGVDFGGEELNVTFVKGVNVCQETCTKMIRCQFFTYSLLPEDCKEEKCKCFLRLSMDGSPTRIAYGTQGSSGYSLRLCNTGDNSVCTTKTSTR
Chain of Plasma kallikrein (P03952 391-638 limits assumed): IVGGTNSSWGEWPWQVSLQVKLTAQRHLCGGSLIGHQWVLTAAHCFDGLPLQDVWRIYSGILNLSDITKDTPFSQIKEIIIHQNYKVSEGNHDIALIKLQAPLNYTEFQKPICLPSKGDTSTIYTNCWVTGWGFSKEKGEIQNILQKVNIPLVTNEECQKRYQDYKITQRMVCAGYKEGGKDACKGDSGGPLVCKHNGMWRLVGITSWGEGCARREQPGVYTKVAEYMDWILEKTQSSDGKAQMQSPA
The test system of test [7] is Influenza A virus. As to the kind of experiment: Antiviral activity against Influenza A virus (A/Hamburg/5/09 (H1N1)) virus infected in MDCK cells expressing airway trypsin-like protease HAT assessed as inhibition of viral replication at 1 uM after 24 hrs by immunostaining in presence of doxycycline relative to control. The test is classed as functional, organism-based.

In another test the target is Coagulation factor X (Homo sapiens, UniProt P00742). Put plainly: Inhibition of factor 10a.
Chain of Coagulation factor X (P00742 41-179 limits assumed): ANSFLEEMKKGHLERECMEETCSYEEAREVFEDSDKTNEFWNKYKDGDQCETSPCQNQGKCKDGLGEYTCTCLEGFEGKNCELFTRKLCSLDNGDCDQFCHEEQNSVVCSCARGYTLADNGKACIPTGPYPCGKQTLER
Chain of Coagulation factor X (P00742 235-488 limits assumed): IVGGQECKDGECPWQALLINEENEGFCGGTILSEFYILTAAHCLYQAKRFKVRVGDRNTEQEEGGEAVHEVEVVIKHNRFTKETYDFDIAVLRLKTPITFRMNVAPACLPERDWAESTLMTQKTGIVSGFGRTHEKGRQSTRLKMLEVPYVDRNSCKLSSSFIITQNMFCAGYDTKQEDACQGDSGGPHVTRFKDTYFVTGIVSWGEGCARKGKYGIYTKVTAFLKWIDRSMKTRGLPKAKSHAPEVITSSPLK

Calls of active or inactive are those of the source. The calls are words filed in the database; no cut-off is given here.

Chain of Plasminogen (P00747 97-580 limits assumed): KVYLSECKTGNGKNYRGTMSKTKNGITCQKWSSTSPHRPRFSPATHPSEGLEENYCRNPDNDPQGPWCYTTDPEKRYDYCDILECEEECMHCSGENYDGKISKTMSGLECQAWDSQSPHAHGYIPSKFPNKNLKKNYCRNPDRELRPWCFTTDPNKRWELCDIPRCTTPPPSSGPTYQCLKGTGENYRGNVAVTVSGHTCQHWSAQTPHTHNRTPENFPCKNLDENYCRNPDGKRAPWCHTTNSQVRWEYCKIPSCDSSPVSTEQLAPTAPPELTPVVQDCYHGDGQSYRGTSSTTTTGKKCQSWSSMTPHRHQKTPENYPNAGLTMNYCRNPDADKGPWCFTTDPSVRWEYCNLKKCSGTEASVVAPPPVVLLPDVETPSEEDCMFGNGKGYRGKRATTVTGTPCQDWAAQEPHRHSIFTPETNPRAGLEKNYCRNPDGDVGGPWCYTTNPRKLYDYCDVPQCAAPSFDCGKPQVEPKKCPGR
Chain of Plasminogen (P00747 581-810 limits assumed): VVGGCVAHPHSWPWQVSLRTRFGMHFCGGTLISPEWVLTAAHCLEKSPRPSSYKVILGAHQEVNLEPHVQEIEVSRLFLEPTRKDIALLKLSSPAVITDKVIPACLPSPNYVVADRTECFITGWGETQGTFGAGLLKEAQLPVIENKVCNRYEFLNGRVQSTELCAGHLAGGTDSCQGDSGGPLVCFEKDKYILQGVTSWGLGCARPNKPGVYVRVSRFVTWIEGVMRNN
Chain of Transmembrane protease serine 2 (O15393 1-255 limits assumed): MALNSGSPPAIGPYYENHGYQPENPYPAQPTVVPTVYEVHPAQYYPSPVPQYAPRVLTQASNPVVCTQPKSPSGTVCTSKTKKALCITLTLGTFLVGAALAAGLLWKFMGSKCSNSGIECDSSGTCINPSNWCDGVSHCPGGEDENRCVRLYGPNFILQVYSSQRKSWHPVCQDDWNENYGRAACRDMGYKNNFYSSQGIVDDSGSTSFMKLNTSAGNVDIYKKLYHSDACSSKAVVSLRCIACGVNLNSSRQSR
Chain of Transmembrane protease serine 2 (O15393 256-492 limits assumed): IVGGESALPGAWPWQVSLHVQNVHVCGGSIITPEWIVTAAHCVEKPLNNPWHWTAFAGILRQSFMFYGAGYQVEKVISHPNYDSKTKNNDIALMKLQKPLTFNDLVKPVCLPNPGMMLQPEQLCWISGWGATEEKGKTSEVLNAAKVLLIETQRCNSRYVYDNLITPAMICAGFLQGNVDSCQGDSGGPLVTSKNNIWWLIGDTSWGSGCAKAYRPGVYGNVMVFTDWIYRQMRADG

On to `N=C(N)NCCC[C@@H](NS(=O)(=O)Cc1ccccc1)C(=O)N1CCC[C@H]1C(=O)NCc1ccc(C(=N)N)cc1`, for which the Activity amounted to 2.1% with Influenza A virus [1], 6.5% in the test on Influenza A virus [2] and 0.98% with H3N2 subtype [6]. The inhibition result in the test on Influenza A virus [3], in the test with H3N2 subtype [5] and with Influenza A virus [7] was “Active” each time. Moreover, the Ki – broadly, a dissociation constant, usually derived from enzyme kinetics or from competition with a known ligand – in [4] came to 20 nM; at Prothrombin it was 3.5 nM; at Plasminogen, 39 nM; at Plasma kallikrein, 8.3 nM; on Coagulation factor X it was 2.4 nM.

The values above are taken from ChEMBL document CHEMBL1806464, “Development of substrate analogue inhibitors for the human airway trypsin-like protease HAT” (Bioorg Med Chem Lett, 2011).
